The target of experiment [1] is T1, PSMA-expressing C4-2 cells (Homo sapiens, UniProt Q04609).
T1 construct: PSMA-expressing C4-2 cells (ATCC, Cat. No. CRL-3314) were cultured in RPMI-1640; host or cells: C4-2 cells
In words: FACS binding assay (competition with 50 nM PSM-0183). Conditions: FACS binding, read-out: pIC50 [C4-2] CAT (converted). A digest of the protocol: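 Competition format: fluorescent tracer PSM-0183 (50 nM) displaced from PSMA on C4-2 cells by a test compound titration over 1 h at 4 °C. Bound tracer was quantified as flow-cytometric AF488 median fluorescence after washing. Four-parameter logistic fits of MFI data gave IC50 and pIC50.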
Background: A flow cytometer gives signals particle by particle.

The target of experiment [2] is T2, Fc-fusion protein of human PSMA (hPSMA-Fc) (Homo sapiens, UniProt Q04609).
T2 construct: purchased Acro Biosystems PSA-H5264
T2 sequence (Q04609 44-750 limits assumed): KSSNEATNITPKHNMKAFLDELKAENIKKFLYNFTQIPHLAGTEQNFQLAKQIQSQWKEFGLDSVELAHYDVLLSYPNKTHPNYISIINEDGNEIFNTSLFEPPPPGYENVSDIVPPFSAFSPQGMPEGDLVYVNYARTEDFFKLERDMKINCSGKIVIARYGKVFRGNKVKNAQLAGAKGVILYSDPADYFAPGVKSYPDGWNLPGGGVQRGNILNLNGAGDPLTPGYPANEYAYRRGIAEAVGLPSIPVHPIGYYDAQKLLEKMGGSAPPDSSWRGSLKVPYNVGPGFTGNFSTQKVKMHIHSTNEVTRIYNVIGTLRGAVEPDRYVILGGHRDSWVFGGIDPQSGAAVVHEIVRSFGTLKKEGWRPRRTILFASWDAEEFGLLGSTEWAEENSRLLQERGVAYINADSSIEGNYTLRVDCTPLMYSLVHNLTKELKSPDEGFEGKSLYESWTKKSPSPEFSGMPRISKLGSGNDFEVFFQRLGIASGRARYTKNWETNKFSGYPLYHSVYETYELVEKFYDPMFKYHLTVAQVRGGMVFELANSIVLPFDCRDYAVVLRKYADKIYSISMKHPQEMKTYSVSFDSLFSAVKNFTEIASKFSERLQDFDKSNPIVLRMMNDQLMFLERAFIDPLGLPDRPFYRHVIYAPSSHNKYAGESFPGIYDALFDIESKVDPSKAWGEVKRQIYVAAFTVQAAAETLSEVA
In words: Surface plasmon resonance assay (Biacore T200, single cycle kinetic). The class given is binding. Conditions: hPSMA-Fc, 25° C., read-out: pKD CAT (converted). A digest of the protocol:
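KD, expressed as pKD, came from 1:1 Langmuir fits of reference- and buffer-blank-subtracted SPR data. The runs were single-cycle kinetics at 25° C in HBST/0.1% DMSO over human PSMA-Fc, captured to ~1000 RU on a peptide-coated CM5 surface and regenerated with 10 mM glycine pH 1.5.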
(Surface plasmon resonance follows binding to a sensor surface in real time, without labels.)

Setting [3] is: C4-2 cells, competition with 50 nM PSM-0183, category.
Setting [4] is: SPR, single cycle kinetic, category.
Setting [5] is: PSMA-expressing C4-2 cells, pIC50 category.

Read-outs that look alike come from different tables or passages of the source. Numbered stars: 1 amine (or outer) side, 2 acyl side, 3 side chain; on linkers, the order of the positions; unused ones are H or OH. Bridge positions count the residues as written; N and C are the ends. Square brackets hold non-standard residues; d marks the D form. Peptide text beside a SMILES is read from it. * marks the point of attachment. TtdsdLys(DOTA)NH2 = NC(=O)[C@@H](CCCCNC(=O)CN1CCN(CC(=O)O)CCN(CC(=O)O)CCN(CC(=O)O)CC1)NC(=O)CCC(=O)NCCCOCCOCCOCCCN*; DOTA = O=C(O)CN1CCN(CC(=O)O)CCN(CC(=O)*)CCN(CC(=O)O)CC1; Phe(3,4-Cl2) = N[C@@H](Cc1ccc(Cl)c(Cl)c1)C(=O)O; Phe(3-CF3) = N[C@@H](Cc1cccc(C(F)(F)F)c1)C(=O)O; Phe(4-Cl) = N[C@@H](Cc1ccc(Cl)cc1)C(=O)O; X4 = O=C(CN1CCC(N[*:1])CC1)[*:2]; X1 = O=C(CC1CCN([*:1])CC1)[*:2]; Cit = NC(=O)NCCC[C@H](N)C(=O)O; Tle = CC(C)(C)[C@H](N)C(=O)O; 4Amb = NCc1ccc(C(=O)O)cc1; Aib = CC(C)(N)C(=O)O

T1 sequence (Q04609 whole entry): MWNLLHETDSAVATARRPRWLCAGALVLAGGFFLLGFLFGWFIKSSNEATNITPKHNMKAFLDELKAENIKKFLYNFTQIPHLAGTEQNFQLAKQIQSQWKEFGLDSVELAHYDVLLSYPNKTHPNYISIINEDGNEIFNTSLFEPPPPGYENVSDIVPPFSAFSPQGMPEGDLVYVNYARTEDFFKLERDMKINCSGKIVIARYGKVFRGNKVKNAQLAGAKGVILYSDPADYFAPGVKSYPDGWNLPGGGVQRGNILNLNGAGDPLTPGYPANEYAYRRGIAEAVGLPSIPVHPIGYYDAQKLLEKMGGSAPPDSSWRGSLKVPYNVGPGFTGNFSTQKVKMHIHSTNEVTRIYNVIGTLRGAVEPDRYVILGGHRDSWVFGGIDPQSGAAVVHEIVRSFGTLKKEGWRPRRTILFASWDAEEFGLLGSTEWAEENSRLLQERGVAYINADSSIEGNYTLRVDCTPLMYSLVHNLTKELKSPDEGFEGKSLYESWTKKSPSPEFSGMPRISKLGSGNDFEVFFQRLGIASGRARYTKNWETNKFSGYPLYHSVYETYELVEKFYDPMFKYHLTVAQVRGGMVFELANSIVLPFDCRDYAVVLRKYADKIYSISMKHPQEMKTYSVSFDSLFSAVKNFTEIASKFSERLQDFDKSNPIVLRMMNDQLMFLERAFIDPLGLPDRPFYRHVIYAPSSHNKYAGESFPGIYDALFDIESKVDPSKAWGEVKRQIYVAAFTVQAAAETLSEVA

Take `CC(=O)N[C@H](C(=O)NC(C)(C)C(=O)N[C@@H](Cc1ccccc1)C(=O)N[C@H]1CSSC[C@@H](C(=O)N[C@H](C(=O)N[C@@H](CCC(=O)O)C(N)=O)C(C)(C)C)NC(=O)[C@H](CC(N)=O)NC(=O)C(C)(C)NC(=O)[C@H](CCCNC(=N)N)NC(=O)[C@H](CCCCN)NC1=O)[C@@H](C)O` [PSM-0262, Ac-Thr-Aib-Phe-[Cys-Lys-Arg-Aib-Asn-Cys]-Tle-Glu-NH2] (Ac-T[Aib]FCKR[Aib]NC[Tle]E-NH2; disulfide 4-9): the IC50 in experiment [1] (setting [3]) was less than 200 nM. For the same molecule, the Kd in experiment [2] (setting [4]) was less than 12.6 nM.
Regarding `C[C@@H](O)[C@H](NC(=O)[C@@H](NC(=O)[C@@H]1CSSC[C@H](NC(=O)[C@H](Cc2ccc(Cl)cc2)NC(=O)C(C)(C)NC(=O)CN2CCC(NC(=O)CN3CCN(CC(=O)O)CCN(CC(=O)O)CCN(CC(=O)O)CC3)CC2)C(=O)N[C@@H](CCCCN)C(=O)N[C@@H](CCCNC(=N)N)C(=O)NC(C)(C)C(=O)N[C@@H](CC(N)=O)C(=O)N1)C(C)(C)C)C(N)=O` [PSM-0263] ({DOTA}-[X4][Aib][Phe(4-Cl)]CKR[Aib]NC[Tle]T-NH2; disulfide 4-9), the IC50 in experiment [1] (setting [3]) was less than 200 nM. Further, the Kd in experiment [2] (setting [4]) was less than 12.6 nM.
On to `CC(=O)N[C@H](C(=O)NC(C)(C)C(=O)N[C@@H](Cc1cccc(C(F)(F)F)c1)C(=O)N[C@H]1CSSC[C@@H](C(=O)N[C@H](C(=O)N[C@H](C(N)=O)[C@@H](C)O)C(C)(C)C)NC(=O)[C@H](CC(N)=O)NC(=O)C(C)(C)NC(=O)[C@H](CCCNC(=N)N)NC(=O)[C@H](CCCCN)NC1=O)[C@@H](C)O` [PSM-0264, Ac-Thr-Aib-Mtf-[Cys-Lys-Arg-Aib-Asn-Cys]-Tle-Thr-NH2] (Ac-T[Aib][Phe(3-CF3)]CKR[Aib]NC[Tle]T-NH2; disulfide 4-9), for which the IC50 in experiment [1] (setting [3]) was less than 200 nM. In experiment [2] (setting [4]), the Kd is less than 12.6 nM.
Consider `CC(=O)N[C@H](C(=O)N[C@@H](C)C(=O)N[C@@H](Cc1ccccc1)C(=O)N[C@H]1CSSC[C@@H](C(=O)N[C@H](C(=O)N[C@H](C(=O)N[C@@H](CC(=O)O)C(=O)NCCCOCCOCCOCCCNC(=O)CCC(=O)N[C@H](CCCCNC(=O)CN2CCN(CC(=O)O)CCN(CC(=O)O)CCN(CC(=O)O)CC2)C(N)=O)[C@@H](C)O)C(C)(C)C)NC(=O)[C@H](CC(N)=O)NC(=O)[C@H](C)NC(=O)[C@H](CCCNC(=N)N)NC(=O)[C@H](CCCCN)NC1=O)[C@@H](C)O` [PSM-0266, Ac-Thr-Ala-Phe-[Cys-Lys-Arg-Ala-Asn-Cys]-Tle-Thr-Asp-Ttds-lys(DOTA)-NH2] (Ac-TAFCKRANC[Tle]TD-{TtdsdLys(DOTA)NH2}; disulfide 4-9), for which, in experiment [1] (setting [3]), the IC50 was less than 200 nM. Besides, the Kd in experiment [2] (setting [4]) was 12.6 to 126 nM.
For the molecule `C[C@@H](O)[C@H](NC(=O)[C@@H](NC(=O)[C@@H]1CSSC[C@H](NC(=O)[C@H](Cc2ccccc2)NC(=O)C(C)(C)NC(=O)c2ccc(CNC(=O)CN3CCN(CC(=O)O)CCN(CC(=O)O)CCN(CC(=O)O)CC3)cc2)C(=O)N[C@@H](CCCCN)C(=O)N[C@@H](CCCNC(=N)N)C(=O)NC(C)(C)C(=O)N[C@@H](CC(N)=O)C(=O)N1)C(C)(C)C)C(N)=O` [PSM-0270, DOTA-Pamb-Aib-Phe-[Cys-Lys-Arg-Aib-Asn-Cys]-Tle-Thr-NH2] ({DOTA-4Amb}-[Aib]FCKR[Aib]NC[Tle]T-NH2; disulfide 3-8), in experiment [1] (setting [5]), the IC50 is less than 200 nM. In experiment [2] (PSMA SPR assay, pKD category), the Kd is less than 12.6 nM.
Regarding `C[C@@H](O)[C@H](NC(=O)[C@@H](NC(=O)[C@@H]1CSSC[C@H](NC(=O)[C@H](Cc2ccc(Cl)c(Cl)c2)NC(=O)C(C)(C)NC(=O)[C@@H](NC(=O)CC2CCN(C(=O)CN3CCN(CC(=O)O)CCN(CC(=O)O)CCN(CC(=O)O)CC3)CC2)[C@@H](C)O)C(=O)N[C@@H](CCCCN)C(=O)N[C@@H](CCCNC(N)=O)C(=O)NC(C)(C)C(=O)N[C@@H](CC(N)=O)C(=O)N1)C(C)(C)C)C(N)=O` [PSM-0274, DOTA-Cmp-Thr-Aib-Eaa-[Cys-Lys-Cit-Aib-Asn-Cys]-Tle-Thr-NH2] ({DOTA}-[X1]T[Aib][Phe(3,4-Cl2)]CK[Cit][Aib]NC[Tle]T-NH2; disulfide 5-10), in experiment [1] (setting [5]), the IC50 is less than 200 nM. The Kd in experiment [2] (PSMA SPR assay, pKD category) was 12.6 to 126 nM.
